Reference: paper PMC4019984, “Kinase and channel activity of TRPM6 are co-ordinated by a dimerization motif and pocket interaction” (Biochemical Journal, 2014)

Tested on: GST-tagged TRPM6-(1700–end)
Experiment: Phosphorylation site mapping of the dimerization peptide by TRPM6 kinase
Type: biochemical, human
Conditions: 500 μM biotinylated peptide, in vitro, trypsin digest, HPLC, Edman solid-phase sequencing
Description: A kinase reaction was set up in a volume of 20 μl, with the wild-type biotinylated dimerization peptide and the active (residues 1700–end) kinase fragment in buffer A containing 0.1% 2-mercaptoethanol, 10 mM MgCl2 and 0.1 mM [γ-^32P]ATP (~1000 cpm·pmol^−1). Assays were carried out for 30 min at 30°C with shaking at […] The reaction was terminated by the addition of LDS sample buffer. DTT was added to a final concentration of 10 mM, the samples were boiled, then alkylated with 50 mM iodoacetamide and subsequently resolved by a Bis-Tris 4–12% polyacrylamide gel, which was stained with Colloidal Coomassie Blue. […] Following tryptic digestion, more than 95% of the ^32P radioactivity incorporated in the gel bands was recovered, and the samples were chromatographed on a Vydac 218TP5215 C18 column (Separations Group) equilibrated in 0.1% trifluoroacetic acid in water. The column was developed with a linear acetonitrile gradient at a flow rate of 0.2 ml/min and fractions of 0.1 ml were collected and analysed for ^32P radioactivity by Cerenkov counting. Isolated phosphopeptides were analysed by MS analysis as follows. […] The five most intense ions, above a specified minimum signal threshold, based on a low-resolution (R=20000) preview of the survey scan, were fragmented by collision-induced dissociation and recorded in the linear ion trap (target value of 5000). […]

Substance: biotin-C6-LKSPQEPHHHYSAIERNNLMRLSQ-TIPFTPVQLFAGEEITV [biotinylated dimerization motif peptide, biotin-C6 wild-type dimerization motif peptide; conjugated to streptavidin–Sepharose]
- phosphorylation site in dimerization motif peptide: threonine at position 22
